Values of other authors, collected in patent publication US12600787B2, “Methods for the treatment of thyroid eye disease” (Horizon Therapeutics Ireland DAC, priority 2019, dated 2026).
Like-named read-outs stand apart in the source and are kept apart here.

What was measured:
[1] = cited from earlier work
TED (GO) = conditions: cited from earlier work
IGF-IR (purified enzyme) = IGF-IR (purified enzyme) (Homo sapiens, UniProt P08069); conditions: cited from earlier work
[2] = tested on: intracellular IGF-IR phosphorylation; conditions: cited from earlier work
[3] = target: c-erbB2/HER2/neu receptor (Homo sapiens, UniProt P04626); conditions: cited from earlier work
IGF-1 R = IGF-1 R (Homo sapiens, UniProt P08069); conditions: cited from earlier work
[4] = tested on: susceptible tumor cell populations; conditions: cited from earlier work
[5] = tested on: IGF-1 R-overexpressing tumor cells; conditions: cited from earlier work
ALK = ALK (Homo sapiens, UniProt Q9UM73); conditions: cited from earlier work
neuroblastoma = conditions: by overcoming crizotinib resistance and inducing apoptosis; cited from earlier work
tumors = conditions: in vivo; cited from earlier work
[6] = cited from earlier work; remark: listed apart in the source
[7] = tested on: moderate-to-severe active TED; conditions: cited from earlier work

IGF-1 R, sequence (P08069 31-1367): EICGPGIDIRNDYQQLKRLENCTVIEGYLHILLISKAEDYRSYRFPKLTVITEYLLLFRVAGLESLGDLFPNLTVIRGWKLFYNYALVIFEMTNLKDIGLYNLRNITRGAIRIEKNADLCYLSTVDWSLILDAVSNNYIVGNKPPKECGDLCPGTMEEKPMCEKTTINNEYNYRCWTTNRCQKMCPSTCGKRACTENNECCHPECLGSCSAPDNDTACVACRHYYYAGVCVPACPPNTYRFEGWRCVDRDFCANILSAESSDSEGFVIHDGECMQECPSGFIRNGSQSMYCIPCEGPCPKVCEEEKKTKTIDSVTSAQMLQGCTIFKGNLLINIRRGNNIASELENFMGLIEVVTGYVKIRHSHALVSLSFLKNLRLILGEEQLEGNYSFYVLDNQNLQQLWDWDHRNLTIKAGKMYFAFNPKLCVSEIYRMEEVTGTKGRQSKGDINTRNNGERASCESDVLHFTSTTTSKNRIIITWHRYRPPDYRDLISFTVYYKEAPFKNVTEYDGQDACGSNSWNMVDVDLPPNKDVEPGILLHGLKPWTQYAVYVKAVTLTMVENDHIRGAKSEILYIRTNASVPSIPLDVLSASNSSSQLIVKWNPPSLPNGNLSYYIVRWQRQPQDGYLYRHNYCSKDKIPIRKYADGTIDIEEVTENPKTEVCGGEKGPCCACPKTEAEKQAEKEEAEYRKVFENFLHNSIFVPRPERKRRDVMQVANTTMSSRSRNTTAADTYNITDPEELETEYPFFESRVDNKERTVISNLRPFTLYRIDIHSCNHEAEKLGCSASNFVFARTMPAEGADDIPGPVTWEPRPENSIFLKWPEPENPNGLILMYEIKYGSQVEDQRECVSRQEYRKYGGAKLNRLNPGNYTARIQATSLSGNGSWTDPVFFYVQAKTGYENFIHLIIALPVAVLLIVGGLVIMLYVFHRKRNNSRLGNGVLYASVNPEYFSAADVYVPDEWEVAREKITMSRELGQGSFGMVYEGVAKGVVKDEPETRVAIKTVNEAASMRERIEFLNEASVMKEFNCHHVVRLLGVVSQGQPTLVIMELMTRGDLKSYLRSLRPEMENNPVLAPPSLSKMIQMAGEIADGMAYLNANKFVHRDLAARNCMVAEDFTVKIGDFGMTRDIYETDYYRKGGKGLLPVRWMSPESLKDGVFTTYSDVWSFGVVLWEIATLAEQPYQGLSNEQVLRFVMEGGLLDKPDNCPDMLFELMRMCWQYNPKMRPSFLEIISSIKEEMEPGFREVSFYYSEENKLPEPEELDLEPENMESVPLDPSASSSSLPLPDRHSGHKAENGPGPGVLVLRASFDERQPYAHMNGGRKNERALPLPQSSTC
IGF-IR (purified enzyme), sequence (P08069 31-1367): as above
ALK, sequence (Q9UM73 19-1620, species assumed): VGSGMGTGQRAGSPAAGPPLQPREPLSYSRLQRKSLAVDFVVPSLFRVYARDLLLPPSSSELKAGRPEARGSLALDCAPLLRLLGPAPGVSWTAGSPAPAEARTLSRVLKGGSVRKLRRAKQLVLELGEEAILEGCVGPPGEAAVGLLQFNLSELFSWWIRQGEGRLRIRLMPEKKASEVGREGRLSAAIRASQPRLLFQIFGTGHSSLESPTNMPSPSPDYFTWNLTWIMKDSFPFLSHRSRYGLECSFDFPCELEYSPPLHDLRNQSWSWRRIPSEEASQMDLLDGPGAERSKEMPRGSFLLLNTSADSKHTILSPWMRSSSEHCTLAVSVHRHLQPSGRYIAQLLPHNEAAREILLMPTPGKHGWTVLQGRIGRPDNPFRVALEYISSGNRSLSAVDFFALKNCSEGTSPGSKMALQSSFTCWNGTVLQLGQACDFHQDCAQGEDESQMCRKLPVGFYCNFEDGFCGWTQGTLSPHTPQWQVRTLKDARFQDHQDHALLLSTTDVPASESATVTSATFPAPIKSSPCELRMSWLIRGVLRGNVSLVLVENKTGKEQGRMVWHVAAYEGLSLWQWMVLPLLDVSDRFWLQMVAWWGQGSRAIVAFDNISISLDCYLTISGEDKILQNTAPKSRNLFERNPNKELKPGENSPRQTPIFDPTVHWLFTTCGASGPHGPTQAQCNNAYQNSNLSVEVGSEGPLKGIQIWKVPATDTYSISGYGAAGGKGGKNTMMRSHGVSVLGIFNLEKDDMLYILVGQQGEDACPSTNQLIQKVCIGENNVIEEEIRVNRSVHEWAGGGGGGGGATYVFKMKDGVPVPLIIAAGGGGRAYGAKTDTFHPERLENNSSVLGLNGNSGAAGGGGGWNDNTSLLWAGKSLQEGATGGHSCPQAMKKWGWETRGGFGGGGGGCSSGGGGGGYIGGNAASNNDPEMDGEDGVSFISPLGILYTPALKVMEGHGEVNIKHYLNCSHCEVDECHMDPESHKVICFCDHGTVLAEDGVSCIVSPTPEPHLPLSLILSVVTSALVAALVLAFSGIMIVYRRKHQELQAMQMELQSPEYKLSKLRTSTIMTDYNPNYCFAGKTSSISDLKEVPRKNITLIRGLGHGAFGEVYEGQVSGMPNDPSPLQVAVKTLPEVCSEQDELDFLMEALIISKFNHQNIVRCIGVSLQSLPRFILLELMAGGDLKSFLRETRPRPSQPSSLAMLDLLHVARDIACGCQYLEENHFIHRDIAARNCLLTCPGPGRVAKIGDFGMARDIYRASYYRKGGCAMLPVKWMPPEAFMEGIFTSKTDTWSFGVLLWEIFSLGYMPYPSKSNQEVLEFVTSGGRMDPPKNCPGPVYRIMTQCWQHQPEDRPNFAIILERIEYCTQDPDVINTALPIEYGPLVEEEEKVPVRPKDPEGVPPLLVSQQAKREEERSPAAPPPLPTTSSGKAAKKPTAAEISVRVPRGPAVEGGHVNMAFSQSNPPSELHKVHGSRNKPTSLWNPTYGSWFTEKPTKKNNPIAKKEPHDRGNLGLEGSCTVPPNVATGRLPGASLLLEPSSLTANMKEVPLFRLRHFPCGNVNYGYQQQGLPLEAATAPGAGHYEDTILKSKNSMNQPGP
c-erbB2/HER2/neu receptor, sequence (P04626 23-1255): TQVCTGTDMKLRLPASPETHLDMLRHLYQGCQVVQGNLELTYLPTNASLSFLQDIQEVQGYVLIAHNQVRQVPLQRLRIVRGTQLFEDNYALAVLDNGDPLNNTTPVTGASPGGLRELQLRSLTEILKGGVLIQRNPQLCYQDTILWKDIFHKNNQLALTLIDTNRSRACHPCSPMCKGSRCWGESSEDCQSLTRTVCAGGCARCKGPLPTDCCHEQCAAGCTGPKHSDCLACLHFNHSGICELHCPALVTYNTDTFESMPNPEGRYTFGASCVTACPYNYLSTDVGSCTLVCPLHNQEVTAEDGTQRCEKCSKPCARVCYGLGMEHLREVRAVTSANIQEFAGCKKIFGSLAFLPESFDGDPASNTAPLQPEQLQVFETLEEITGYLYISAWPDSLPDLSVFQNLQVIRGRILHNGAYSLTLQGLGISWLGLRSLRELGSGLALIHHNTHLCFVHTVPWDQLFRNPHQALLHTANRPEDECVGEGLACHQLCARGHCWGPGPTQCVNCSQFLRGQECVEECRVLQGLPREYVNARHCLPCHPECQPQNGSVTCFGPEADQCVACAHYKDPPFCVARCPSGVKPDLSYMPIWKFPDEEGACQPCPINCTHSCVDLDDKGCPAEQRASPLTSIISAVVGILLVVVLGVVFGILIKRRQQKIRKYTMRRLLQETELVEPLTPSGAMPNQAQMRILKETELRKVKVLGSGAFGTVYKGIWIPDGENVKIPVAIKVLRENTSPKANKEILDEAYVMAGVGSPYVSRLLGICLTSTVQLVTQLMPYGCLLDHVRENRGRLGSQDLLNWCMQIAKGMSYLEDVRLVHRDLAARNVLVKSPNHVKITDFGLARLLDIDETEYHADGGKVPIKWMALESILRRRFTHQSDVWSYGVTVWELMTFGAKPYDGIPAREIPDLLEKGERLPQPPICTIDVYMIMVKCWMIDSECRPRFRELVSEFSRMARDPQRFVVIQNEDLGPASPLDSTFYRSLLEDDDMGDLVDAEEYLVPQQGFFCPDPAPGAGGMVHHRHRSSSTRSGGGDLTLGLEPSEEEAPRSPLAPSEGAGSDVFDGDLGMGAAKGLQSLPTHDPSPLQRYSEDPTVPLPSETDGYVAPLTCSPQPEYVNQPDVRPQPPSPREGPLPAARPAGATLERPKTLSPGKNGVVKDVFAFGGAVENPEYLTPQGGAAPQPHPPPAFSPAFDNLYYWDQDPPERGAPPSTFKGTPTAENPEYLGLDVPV

teprotumumab: fully human IGF-IR-inhibitory monoclonal antibody approved for the treatment of TED
T1/2 ([1]; IV): IV; 8 days
efficacy in the treatment of TED (TED (GO); in vivo): effective
average decrease in exophthalmos (TED (GO); vs. 0.15 mm in the placebo group): 2.46 mm

Nc1ncnc2c1c(-c1ccc3[nH]c(Cc4ccccc4Cl)nc3c1)nn2[C@H]1CC[C@H](N2CCOCC2)CC1 [Example A-928605]
inhibition of IGF-IR (IGF-IR (purified enzyme)): potent inhibitor
inhibition of IGF-IR phosphorylation [2]: potent inhibitor

Dalotuzumab: IGF-1R inhibitor antibody, HC SEQ ID NO:7, LC SEQ ID NO:8
T1/2 ([1]; in vivo): IV; 5 days

C[C@]1(O)C[C@@H](c2nc(-c3ccc4ccc(-c5ccccc5)nc4c3)c3c(N)nccn32)C1 [Linsitinib]
T1/2 ([1]; oral): oral; 2-4 hrs

Cixutumumab: IGF-1R inhibitor antibody, HC SEQ ID NO:55, LC SEQ ID NO:56
T1/2 ([1]; IV): IV; 5 days

C[C@H](Cc1ccc(O)c(O)c1)[C@@H](C)Cc1ccc(O)c(O)c1 [INSM-18, nordihydroguaiaretic acid]
inhibition of activation of c-erbB2/HER2/neu receptor [3]: directly inhibits activation
IGF-1R inhibition (IGF-1 R): directly inhibits activation
proliferation of tumor cells [4]: decreased proliferation

CCOC(=O)N1CCC(Nc2cc(Cl)cc3c(S(=O)(=O)N4CCO[C@H](COc5ccccc5)C4)c(C(N)=O)[nH]c23)CC1 [PL-225B]
T1/2 ([1]; oral): Oral; 21d
IGF-1R inhibition (IGF-1 R): selectively inhibits
tumor cell apoptosis [5]: induction of tumor cell apoptosis
tumor cell proliferation [5]: inhibition of tumor cell proliferation

COc1cc(N2CCC(N)CC2)ccc1Nc1ncc(Cl)c(-c2c[nH]c3ccccc23)n1 [AZD3463]
ALK inhibition (ALK): potent ALK/IGF-1 R inhibitor
IGF-1R inhibition (IGF-1 R): potent ALK/IGF-1 R inhibitor
neuroblastoma growth (neuroblastoma): inhibition of neuroblastoma growth

COCCN1CCN(CCn2ccc(Nc3ncc4c(n3)[C@@H](C)Cc3nn(C)c(-c5ccccc5)c3-4)n2)CC1 [BI885578]
cell proliferation and apoptosis in tumors (tumors): inhibition of cell proliferation and induction of apoptosis in tumors
in vivo half-life [6]: short in vivo half-life
intestinal absorption ([6]; in vivo): rapid intestinal absorption
metabolic clearance ([6]; in vivo): rapid metabolic clearance

rituximab: a CD20+ B cell-depleting agent
trial result versus placebo ([7]; first monocenter RCT, 2015): negative (no differences with placebo)
reduction in proptosis compared with ivGCs ([7]; results using rituximab versus ivGC RCT): not different
trial result versus ivGCs ([7]; second monocenter RCT, 2015): positive (beneficial effects comparable to ivGCs)

B1: Figitumumab: IGF-1R inhibitor antibody, HC SEQ ID NO:39, LC SEQ ID NO:40 (antibody)
heavy: EVQLLESGGGLVQPGGSLRLSCTASGFTFSSYAMNWVRQAPGKGLEWVSAISGSGGTTFYADSVKGRFTISRDNSRTTLYLQMNSLRAEDTAVYYCAKDLGWSDSYYYYYGMDVWGQGTTVTVSSASTKGPSVFPLAPCSRSTSESTAALGCLVKDYFPEPVTVSWNSGALTSGVHTFPAVLQSSGLYSLSSVVTVPSSNFGTQTYTCNVDHKPSNTKVDKTVERKCCVECPPCPAPPVAGPSVFLFPPKPKDTLMISRTPEVTCVVVDVSHEDPEVQFNWYVDGVEVHNAKTKPREEQFNSTFRVVSVLTVVHQDWLNGKEYKCKVSNKGLPAPIEKTISKTKGQPREPQVYTLPPSREEMTKNQVSLTCLVKGFYPSDIAVEWESNGQPENNYKTTPPMLDSDGSFFLYSKLTVDKSRWQQGNVFSCSVMHEALHNHYTQKSLSLSPGK
light: DIQMTQFPSSLSASVGDRVTITCRASQGIRNDLGWYQQKPGKAPKRLIYAASRLHRGVPSRFSGSGSGTEFTLTISSLQPEDFATYYCLQHNSYPCSFGQGTKLEIKRTVAAPSVFIFPPSDEQLKSGTASVVCLLNNFYPREAKVQWKVDNALQSGNSQESVTEQDSKDSTYSLSSTLTLSKADYEKHKVYACEVTHQGLSSPVTKSFNRGEC
modifications: Heavy Chain of Figitumumab; Light Chain of Figitumumab
T1/2 ([1]; IV): IV; 20 days
